Assay results taken from ChEMBL document CHEMBL4665699, “Cytotoxic Diterpenoids from Caryopteris aureoglandulosa” (J Nat Prod, 2020).
pIC50: −log10 of the molar value.

Experiments:
Format in all cases: functional, cell-based
[1] = test system: NCI-H1650; assay: Cytotoxicity against human NCI-H1650 cells assessed as reduction in cell viability after 48 hrs by CCK8 assay; conditions: NCI-H1650, 48 h
[2] = test system: PC-9; assay: Cytotoxicity against human PC-9 cells assessed as reduction in cell viability after 48 hrs by CCK8 assay; conditions: PC-9, 48 h
[3] = test system: NCI-H460; assay: Cytotoxicity against human NCI-H460 cells assessed as reduction in cell viability after 48 hrs by CCK8 assay; conditions: NCI-H460, 48 h
[4] = test system: A549; assay: Cytotoxicity against human A549 cells assessed as reduction in cell viability after 48 hrs by CCK8 assay; conditions: A549, 48 h
[5] = Cytotoxicity against human 95-D cells assessed as reduction in cell viability after 48 hrs by CCK8 assay

Structure (SMILES)	pIC50 [1]	pIC50 [2]	pIC50 [3]	pIC50 [4]	pIC50 [5]
C[C@@]12CC[C@@H](OC1=O)c1c2cc(O)c2c1C(=O)c1oc(CO)cc1C2=O	5.80	< 5.00	< 5.00	5.32	5.41
Cc1cc2c(o1)C(=O)c1cc3c(c(O)c1C2=O)C(=O)CCCC3(C)C	5.27	5.09	< 5.00	4.98	< 5.00
O=c1[nH]cc(F)c(=O)[nH]1 [FLUOROURACIL]	< 5.00	< 5.00	5.00	< 5.00	< 5.00
